Data reported in patent US20120302490A1, “Bleach Catalyst Compounds, Method For The Production Thereof And Use Thereof” (CLARIANT FINANCE (BVI) LIMITED, priority 2009, published 2012).

Assay: Water absorption (hygroscopicity) of the solid upon storage
Type: physicochemical
Description: Tri-μ-oxobis[(1,4,7-trimethyl-1,4,7-triazacyclononane)manganese(IV)]dichloride is prepared analogously to comparative example 1 and isolated in pure form as a red-brown powder. 4.7 g (8 mmol) thereof are dissolved in 50 ml of water and admixed with 3.1 g (16 mmol) of toluene-4-sulfonic acid sodium salt (Merck). After-stirring is carried out for 1 hour at room temperature, followed by evaporation to dryness on a rotary evaporator.
Analogously to comparative example 1, an aqueous solution of 0.2 mol of tri-μ-oxobis[(1,4,7-trimethyl-1,4,7-triazacyclononane)manganese(IV)]dichloride in water is prepared and freed from manganese oxides/hydroxides. The salts contained as a result of the reaction (sodium chloride) remain in the solution. At 25° C., 0.4 mol (77.6 g) of solid toluene-4-sulfonic acid sodium salt (Merck) is added and the mixture is after-stirred for 30 minutes. The clear dark red solution is then evaporated to dryness. Drying in a vacuum drying cabinet gives a crystalline red-violet solid in 92.7% yield, a mixture of tri-μ-oxobis[(1,4,7-trimethyl-1,4,7-triaza-cyclononane)manganese(IV)]dichloride, sodium toluenesulfonate and sodium chloride.
The procedure is in accordance with example 2 but adding sodium cumenesulfonate instead of the sodium toluene-4-sulfonate (equimolar exchange of sodium toluene-4-sulfonate for sodium cumenesulfonate). Evaporation at 50° C. gives a red-brown solid which, after 5 days, absorbs 7.1% by weight of water and in so doing becomes lumpy.
4.4 g (7.5 mmol) of isolated tri-μ-oxobis[(1,4,7-trimethyl-1,4,7-triazacyclo-nonane)manganese(IV)]dichloride according to comparative example 1 are dissolved in 50 ml of water, and 4.3 g (15 mmol) of sodium dodecylsulfate are added. The mixture is after-stirred for 1 hour at room temperature and then evaporated to dryness on a rotary evaporator. This gives 8.7 g of crystalline red solid which, after storage for 5 days at room temperature, absorbs 8.7% by weight of water and in so doing becomes lumpy.

CN1CCN(C)CCN(C)CC1.CN1CCN(C)CCN(C)CC1.[Cl-].[Cl-].[O]1[Mn+]2[O][Mn+]1[O]2 [compound 1, tri-μ-oxobis[(1,4,7-trimethyl-1,4,7-triazacyclononane)-manganese(IV)]dichloride]
hygroscopicity of isolated powder (as isolated, red-brown powder): strongly hygroscopic
physical state after storage (open dish, room temperature, 24 hours): becomes liquid
water absorbed upon storage (open dish, room temperature, over the course of 24 hours): > 17 % by weight
